This is an account of results in ChEMBL document CHEMBL1201862, “PubChem BioAssay data set” (2004).

Some test systems named below: HCC 2998; HCT-116; HOP-62; HT-29; IGROV-1; M14; MDA-MB-231; MOLT-4; NCI-H226; NCI-H460; OVCAR-3; OVCAR-4; RXF 393; SF-539; SK-MEL-2; SW-620; U-251; UACC-257; UO-31; CCRF-CEM.
Holding throughout (assay): NCI-60 cell line screen, 48 h

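Cells were grown in 96-well plates and exposed to each compound for 48 hours at five concentrations; endpoints were interpolated linearly between bracketing concentrations, or set to the highest concentration if not reached. At the GI50, growth is halved.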 Calls of active or inactive are those of the source. Cut-off read from the data, not from the text of the source: active = GI50 up to about 1.1 µM and inactive = higher.

Regarding `O=C(/C=C/c1ccccc1)Oc1cccc(Br)c1`, the GI50 with HCC 2998 was 35.7 µM (inactive); with HCT-116 it was 25.6 µM (inactive); with HOP-62, > 100 µM (inactive); in the experiment with HT-29 it was 30.5 µM (inactive); with IGROV-1, 17.7 µM (inactive); in the experiment on M14, 78.7 µM (inactive). Moreover, the GI50 was > 100 µM (inactive) in the experiment on MDA-MB-231; 11.6 µM (inactive) in the experiment on MOLT-4; > 100 µM (inactive) in the experiment with NCI-H226; > 100 µM (inactive) with NCI-H460; 78.2 µM (inactive) in the experiment on OVCAR-3; 93.8 µM (inactive) in the experiment with OVCAR-4. The GI50 with RXF 393 was 56.8 µM (inactive); in the experiment with SF-539 it was 39.9 µM (inactive); in the experiment on SK-MEL-2, > 100 µM (inactive); with SW-620 it was 44.2 µM (inactive); in the experiment on U-251 it was 29.5 µM (inactive); in the experiment on UACC-257 it was > 100 µM (inactive). Also, the GI50 in the experiment with UO-31 was 52.8 µM (inactive).
As to `CCOC(=O)c1c(-c2ccc(Cl)cc2)c(C#N)c(=S)n(C2OC(COC(C)=O)C(OC(C)=O)C(OC(C)=O)C2OC(C)=O)c1-c1ccccc1` (stereo not drawn), the GI50 in the experiment on CCRF-CEM, with HCC 2998, in the experiment on HCT-116, in the experiment with HOP-62, in the experiment on HT-29 and in the experiment on IGROV-1 was > 100 µM (inactive) throughout. Moreover, the GI50 is 57.5 µM (inactive) with M14; > 100 µM (inactive) in the experiment with MDA-MB-231; > 100 µM (inactive) in the experiment with MOLT-4; > 100 µM (inactive) in the experiment with NCI-H460; > 100 µM (inactive) in the experiment with OVCAR-3; > 100 µM (inactive) in the experiment with OVCAR-4. The GI50 in the experiment with RXF 393, in the experiment on SF-539, in the experiment on SK-MEL-2, in the experiment on SW-620, with U-251 and in the experiment on UACC-257 was > 100 µM (inactive) each time. Further, the GI50 in the experiment with UO-31 is > 100 µM (inactive).
In the case of `CCN(CC)C(=S)SNc1ccc(S(N)(=O)=O)cc1`, the GI50 was > 100 µM (inactive) in the experiment on HCC 2998; 47.3 µM (inactive) in the experiment on HCT-116; 69.8 µM (inactive) in the experiment with HOP-62; 24.6 µM (inactive) in the experiment with HT-29; 2.11 µM (inactive) in the experiment on IGROV-1; 24.5 µM (inactive) in the experiment on M14. Further, the GI50 is 60.5 µM (inactive) in the experiment with MDA-MB-231; 0.789 µM (active) in the experiment on MOLT-4; > 100 µM (inactive) in the experiment with NCI-H226; 38.7 µM (inactive) in the experiment with NCI-H460; > 83 µM (inactive) in the experiment on OVCAR-4; 44.4 µM (inactive) with RXF 393. For the same compound, the GI50 was > 76.6 µM (inactive) in the experiment with SF-539; > 63.1 µM (inactive) in the experiment on SK-MEL-2; 13.7 µM (inactive) with SW-620; 50.4 µM (inactive) in the experiment with U-251; > 100 µM (inactive) in the experiment on UACC-257; 33.2 µM (inactive) in the experiment with UO-31.
With `C1CSCCSCCSCCSCCS1`, the GI50 in the experiment with HCC 2998, in the experiment on HCT-116, in the experiment on HOP-62, in the experiment on HT-29, with IGROV-1 and in the experiment on M14 was > 100 µM (inactive) in each case. For the same compound, the GI50 in the experiment with MDA-MB-231, in the experiment on MOLT-4, in the experiment with NCI-H226, with NCI-H460, in the experiment with OVCAR-3 and in the experiment with OVCAR-4 was > 100 µM (inactive) in each case. Further, the GI50 with RXF 393, with SF-539, in the experiment on SK-MEL-2, with SW-620, in the experiment on U-251 and in the experiment with UACC-257 was > 100 µM (inactive) each time. For the same compound, the GI50 with UO-31 was > 100 µM (inactive).
Regarding `Cc1nnc(N)nc1/C=C\c1cccs1`, the GI50 in the experiment on CCRF-CEM is 16.7 µM (inactive); in the experiment on HCC 2998, 14.6 µM (inactive); with HCT-116 it was 17.3 µM (inactive); in the experiment with HOP-62, 16.7 µM (inactive); in the experiment on HT-29, 14.1 µM (inactive); in the experiment on IGROV-1 it was 12 µM (inactive). The GI50 in the experiment with M14 was 16.2 µM (inactive); with MDA-MB-231, 87.3 µM (inactive); in the experiment on MOLT-4 it was 32.3 µM (inactive); with NCI-H226, 17.5 µM (inactive); with NCI-H460, 14.7 µM (inactive); in the experiment with OVCAR-4, 21.6 µM (inactive). Also, the GI50 in the experiment with RXF 393 was 19.5 µM (inactive); with SK-MEL-2 it was 14.6 µM (inactive); with SW-620 it was 25.5 µM (inactive); with U-251 it was 29.9 µM (inactive); with UACC-257, 32.6 µM (inactive); in the experiment on UO-31, 10.1 µM (inactive).
On to `COc1ccc2c(c1)CN1C(=N2)CSC1c1cc([N+](=O)[O-])ccc1Cl` (stereo not drawn), for which the GI50 in the experiment on HCC 2998 is 33.1 µM (inactive); in the experiment with HCT-116, 27.2 µM (inactive); with HOP-62, 75.2 µM (inactive); in the experiment on HT-29 it was 24.7 µM (inactive); in the experiment with IGROV-1, 58.7 µM (inactive); in the experiment on M14, 31.6 µM (inactive). Moreover, the GI50 in the experiment with MDA-MB-231 is 54.5 µM (inactive); with MOLT-4, 29.2 µM (inactive); in the experiment with NCI-H226, 42 µM (inactive); with NCI-H460, 31.9 µM (inactive); in the experiment on OVCAR-4 it was 39.1 µM (inactive); in the experiment with RXF 393 it was 26.2 µM (inactive). The GI50 in the experiment on SF-539 is 28.5 µM (inactive); in the experiment on SK-MEL-2, 31.1 µM (inactive); in the experiment with SW-620 it was 31 µM (inactive); with U-251 it was 40.6 µM (inactive); in the experiment on UACC-257, 38.1 µM (inactive); with UO-31, 41.1 µM (inactive).
On to `COc1ccccc1/C=C/C1=NN(c2cccc(S(=O)(=O)O)c2)C2(C1)SCC(=O)N2c1nc2ccccc2s1` (stereo not drawn), for which the GI50 with CCRF-CEM was 23 µM (inactive); in the experiment with HCC 2998, 60.3 µM (inactive); in the experiment with HCT-116, > 100 µM (inactive); in the experiment with HT-29 it was 97.9 µM (inactive); with IGROV-1, 21.4 µM (inactive); in the experiment with M14, > 100 µM (inactive). The GI50 in the experiment on MDA-MB-231 was > 100 µM (inactive); in the experiment on MOLT-4 it was 36.7 µM (inactive); in the experiment on NCI-H226, 31.7 µM (inactive); in the experiment with NCI-H460, 61.9 µM (inactive); in the experiment with OVCAR-4, 86.7 µM (inactive); in the experiment with RXF 393 it was > 100 µM (inactive). Also, the GI50 in the experiment with SF-539 is > 100 µM (inactive); with SK-MEL-2, > 100 µM (inactive); with SW-620, > 100 µM (inactive); in the experiment on U-251, 52.6 µM (inactive); in the experiment with UACC-257 it was 97.7 µM (inactive); in the experiment with UO-31, 71.9 µM (inactive).
Consider `CCN(CC)CCOc1ccc(N2C(=O)c3cc(OC)c(OC)cc3C2=O)cc1`, for which the GI50 in the experiment with CCRF-CEM, in the experiment on HCC 2998, in the experiment with HCT-116, in the experiment with HOP-62, in the experiment with HT-29 and with IGROV-1 was > 100 µM (inactive) throughout. Moreover, the GI50 in the experiment with M14, with MDA-MB-231, in the experiment with MOLT-4, with NCI-H226, in the experiment with NCI-H460 and in the experiment on OVCAR-3 was > 100 µM (inactive) each time. For the same compound, the GI50 in the experiment with OVCAR-4, in the experiment with RXF 393, in the experiment on SF-539, with SK-MEL-2, in the experiment on SW-620 and in the experiment on U-251 was > 100 µM (inactive) in each case. Moreover, the GI50 in the experiment with UACC-257 is > 100 µM (inactive).
In the case of `CC1(C)NC2C(=O)c3c([nH]c4ccccc34)[C@]3(C)CCC1CC23` (stereo partly drawn), the GI50 was > 100 µM (inactive) in the experiment with CCRF-CEM; > 100 µM (inactive) in the experiment with HCC 2998; > 100 µM (inactive) with HCT-116; > 100 µM (inactive) in the experiment on HOP-62; 94.8 µM (inactive) in the experiment on HT-29; > 100 µM (inactive) in the experiment on IGROV-1. The GI50 in the experiment on MDA-MB-231 was > 100 µM (inactive); in the experiment with MOLT-4 it was 59.4 µM (inactive); in the experiment on NCI-H226 it was > 100 µM (inactive); in the experiment with NCI-H460, > 100 µM (inactive); with OVCAR-3, > 100 µM (inactive); with OVCAR-4 it was 60.8 µM (inactive). In addition, the GI50 in the experiment on RXF 393, with SF-539, in the experiment with SK-MEL-2, in the experiment with SW-620, in the experiment on U-251 and in the experiment with UACC-257 was > 100 µM (inactive) in each case. In the experiment on UO-31, the GI50 was > 100 µM (inactive).
In the case of `Nc1ncnc2c1ccn2C/C=C\CO`, the GI50 with CCRF-CEM, in the experiment on HCC 2998, in the experiment with HCT-116, with HOP-62, with HT-29 and with IGROV-1 was > 100 µM (inactive) each time. Besides, the GI50 in the experiment on M14 was > 100 µM (inactive); with MDA-MB-231, > 100 µM (inactive); in the experiment on MOLT-4 it was 85.9 µM (inactive); in the experiment with NCI-H460, > 100 µM (inactive); in the experiment on OVCAR-3, > 100 µM (inactive); with OVCAR-4, > 100 µM (inactive). Moreover, the GI50 in the experiment on RXF 393, in the experiment with SF-539, in the experiment on SK-MEL-2, with SW-620, in the experiment with U-251 and in the experiment on UACC-257 was > 100 µM (inactive) in each case. In the experiment with UO-31, the GI50 is > 100 µM (inactive).
On to `CSCCC(NC(=O)Cc1ccc(C(=O)c2ccccc2)cc1)C(=O)N1CCN(CCCCN2c3ccccc3Sc3cc(N=[N+]=[N-])ccc32)CC1` (stereo not drawn), for which the GI50 was 49.3 µM (inactive) with CCRF-CEM; > 100 µM (inactive) with HCC 2998; 65.8 µM (inactive) in the experiment on HCT-116; > 100 µM (inactive) with HOP-62; > 100 µM (inactive) in the experiment on HT-29; > 100 µM (inactive) in the experiment with IGROV-1. In addition, the GI50 in the experiment on MDA-MB-231 was > 100 µM (inactive); with MOLT-4, > 100 µM (inactive); in the experiment with NCI-H226, 78.2 µM (inactive); in the experiment with NCI-H460, > 100 µM (inactive); in the experiment on OVCAR-3, > 100 µM (inactive); with OVCAR-4 it was 16.5 µM (inactive). For the same compound, the GI50 in the experiment on RXF 393 is 89.9 µM (inactive); in the experiment with SK-MEL-2 it was > 100 µM (inactive); with U-251, > 100 µM (inactive); with UACC-257, > 100 µM (inactive); in the experiment with UO-31, 34.8 µM (inactive).
